Laboratory results published in ChEMBL document CHEMBL4265965, “Dichloroacetophenones targeting at pyruvate dehydrogenase kinase 1 with improved selectivity and antiproliferative activity: Synthesis and structure-activity relationships” (Bioorg Med Chem Lett, 2018).
Activity calls are given as the source filed them. No cut-off for these calls is given here.

Assays:
[1] = system: A549; assay: Antiproliferative activity against human A549 cells assessed as inhibition of cell proliferation at 2 uM after 72 hrs by MTT assay relative to control; assay type: functional; conditions: for inhibition at 2 µM: A549, 72 h
[2] = system: NCI-H1650; assay: Antiproliferative activity against human NCI-H1650 cells assessed as inhibition of cell proliferation at 2 uM after 72 hrs by MTT assay relative to control; assay type: functional; conditions: for inhibition at 2 µM: NCI-H1650, 72 h
[3] = system: NCI-H1650; assay: Antiproliferative activity against human NCI-H1650 cells assessed as inhibition of cell proliferation at 12 uM after 72 hrs by MTT assay relative to control; assay type: functional; conditions: NCI-H1650, 72 h
[4] = system: A549; assay: Antiproliferative activity against human A549 cells assessed as inhibition of cell proliferation at 12 uM after 72 hrs by MTT assay relative to control; assay type: functional; conditions: A549, 72 h
[5] = system: NCI-H1650; assay: Antiproliferative activity against human NCI-H1650 cells assessed as inhibition of cell proliferation at 6 uM after 72 hrs by MTT assay relative to control; assay type: functional; conditions: for inhibition at 6 µM: NCI-H1650, 72 h
[6] = molecular target: [Pyruvate dehydrogenase (acetyl-transferring)] kinase isozyme 1, mitochondrial (Homo sapiens, UniProt Q15118); assay: Inhibition of recombinant human N-terminal His6/Sumo-tagged PDK1 (29 to 436 residues) expressed in Escherichia coli BL21 at 1 uM by kinase-glo luminescence assay relative to control
[7] = system: NCI-H1975; assay: Antiproliferative activity against human NCI-H1975 cells assessed as inhibition of cell proliferation at 6 uM after 72 hrs by MTT assay relative to control; assay type: functional; conditions: NCI-H1975, 72 h
[8] = system: NCI-H1975; assay: Antiproliferative activity against human NCI-H1975 cells assessed as inhibition of cell proliferation at 2 uM after 72 hrs by MTT assay relative to control; assay type: functional; conditions: for inhibition at 2 µM: NCI-H1975, 72 h
[9] = system: A549; assay: Antiproliferative activity against human A549 cells assessed as inhibition of cell proliferation at 6 uM after 72 hrs by MTT assay relative to control; assay type: functional; conditions: A549, 72 h
[10] = system: NCI-H1975; assay: Antiproliferative activity against human NCI-H1975 cells assessed as inhibition of cell proliferation at 12 uM after 72 hrs by MTT assay relative to control; assay type: functional; conditions: NCI-H1975, 72 h

inhibition [6] | Compound | inhibition [1] | inhibition at 2 µM [2] [%] | inhibition at 12 µM [3] [%] | inhibition at 12 µM [4] [%] | inhibition at 6 µM [5] [%] | inhibition at 6 µM [7] [%] | inhibition at 2 µM [8] [%] | inhibition at 6 µM [9] [%] | inhibition at 12 µM [10] [%] | inhibition at 2 µM [1] [%] | inhibition [2] | inhibition [5] | inhibition [8]
inactive | CCCc1ccc(C(=O)C(Cl)Cl)cc1[N+](=O)[O-] | inactive | 29.8 | 99.8 | 65.2 | 60.2 | 69.5 | 31.5 | 8.9 | 99.8 | – | – | – | –
41.7% | O=C(c1ccc(Cl)c([N+](=O)[O-])c1)C(Cl)Cl | – | 96.3 | 100 | 99.8 | 100 | 99.8 | 98.4 | 86.7 | 100 | 34.7 | – | – | –
– | O=C(c1ccc([N+](=O)[O-])cc1)C(Cl)Cl | – | 35 | 99.9 | 97.6 | 98.5 | 99.6 | 77.8 | 70.5 | 99.4 | 24.5 | – | – | –
44% | CCc1ccc(C(=O)C(Cl)Cl)cc1 | – | 30.7 | 99.3 | 92.8 | 79.1 | 97.6 | 55.4 | 81.4 | 96.5 | 31.5 | – | – | –
19.7 to 67.9% | CCOc1ccc(C(=O)C(Cl)Cl)cc1 | – | 22.3 | 90.2 | 80.9 | 50.4 | 89 | 22.6 | 31.6 | 98.6 | 18.9 | – | – | –
10.2% | Cc1cc(C(=O)C(Cl)Cl)ccc1Cl | – | 38.8 | 98.8 | 81 | 79.7 | 97.8 | 46.7 | 51.7 | 99.2 | 13.2 | – | – | –
– | O=C(c1cccc(Cl)c1)C(Cl)Cl | – | 24.9 | 99.1 | 82.8 | 76.3 | 95.9 | 37 | 53.1 | 98.4 | 14.2 | – | – | –
– | O=C(c1cccc(I)c1)C(Cl)Cl | – | 46.1 | 98.7 | 89.8 | 82 | 97.5 | 64 | 67 | 99.1 | 20.4 | – | – | –
– | N#Cc1ccc(C(=O)C(Cl)Cl)cc1 | – | 11.8 | 96.5 | 61.4 | 65.8 | 99.4 | 54.6 | 15.9 | 99.7 | 8.5 | – | – | –
– | O=C(c1ccc(I)cc1)C(Cl)Cl | – | 29.3 | 99.6 | 74.4 | 65.6 | 91.4 | 33.8 | 52.3 | 96.8 | 9.3 | – | – | –
– | COc1cccc2c1C(=O)c1c(O)c3c(c(O)c1C2=O)C[C@@](O)(C(=O)CO)C[C@@H]3O[C@H]1C[C@H](N)[C@H](O)[C@H](C)O1 [DOXORUBICIN] | – | 60.5 | 99.6 | 98.9 | 86.9 | 90.6 | 72.4 | 86.7 | 98.6 | 52.3 | – | – | –
– | CCc1cccc(C(=O)C(Cl)Cl)c1 | – | 23.7 | 98.7 | 63.2 | 64.1 | 85.9 | 28 | 25.7 | 96.9 | 22.6 | – | – | –

Compound | inhibition [6] | inhibition [1] | inhibition at 2 µM [2] [%] | inhibition at 12 µM [3] [%] | inhibition at 12 µM [4] [%] | inhibition at 6 µM [5] [%] | inhibition at 6 µM [7] [%] | inhibition at 2 µM [8] [%] | inhibition at 6 µM [9] [%] | inhibition at 12 µM [10] [%] | inhibition at 2 µM [1] [%] | inhibition [2] | inhibition [5] | inhibition [8]
O=C(c1ccccc1Br)C(Cl)Cl | inactive | – | – | 0.4 | 17.5 | – | 14.3 | – | 6.1 | 49.5 | 1.4 | inactive | inactive | inactive
